Laboratory results as given in ChEMBL document CHEMBL1154635, “Mitoxantrone analogues as ligands for a stem-loop structure of tau pre-mRNA” (J Med Chem, 2009).

Key:
Nucleic Acid [1] = experiment: Binding affinity to tau stem-loop RNA assessed as inhibition of RNA stem-loop unfolding; assay type: nucleic-acid assay
Nucleic Acid [2] = experiment: Displacement of fluorescent pyrene-neomycin conjugate from tau stem-loop RNA; assay type: nucleic-acid assay

| IC50 (Nucleic Acid [1]) | EC50 (Nucleic Acid [2]) | Compound |
| --- | --- | --- |
| 5.7 µM | 14 µM | O=C1c2c(O)ccc(O)c2C(=O)c2c(NCCOCCO)ccc(NCCNCCO)c21 |
| 0.34 µM | 1.2 µM | O=C1c2c(NCCNCCO)ccc(NCCNCCO)c2C(=O)c2c(NCCNCCO)ccc(NCCNCCO)c21 |
| > 100 µM | > 100 µM | Nc1ccc(N)c2c1C(=O)c1c(O)ccc(O)c1C2=O |
| 5.8 µM | 29 µM | Nc1ccc(NCCNCCO)c2c1C(=O)c1c(O)ccc(O)c1C2=O |
| 2.4 µM | 12 µM | CC(C)(C)OC(=O)NCCNCCNc1ccc(NCCNCCO)c2c1C(=O)c1c(O)ccc(O)c1C2=O |
| > 100 µM | > 100 µM | Nc1ccc(N)c2c1C(=O)c1c(N)ccc(N)c1C2=O |
| 0.13 µM | 0.13 µM | NCCNCCNCCNc1ccc(NCCNCCNCCN)c2c1C(=O)c1c(O)ccc(O)c1C2=O |
| 1.5 µM | 4.4 µM | O=C1c2c(O)ccc(NCCNCCO)c2C(=O)c2c(NCCNCCO)ccc(O)c21 |
| 5.7 µM | 75 µM | O=C1c2c(O)ccc(O)c2C(=O)c2c(NCCNCCO)ccc(F)c21 |
| 2.3 µM | 16 µM | O=C1c2c(F)ccc(F)c2C(=O)c2c(NCCNCCO)ccc(NCCNCCO)c21 |
| 0.42 µM | 0.8 µM | O=C1c2c(O)ccc(NCCNCCO)c2C(=O)c2c(NCCNCCO)ccc(NCCNCCO)c21 |
| 0.18 µM | 0.31 µM | NCCNCCNc1ccc(NCCNCCO)c2c1C(=O)c1c(O)ccc(O)c1C2=O |
| 0.23 µM | 0.38 µM | NCCNCCNCCNc1ccc(NCCNCCO)c2c1C(=O)c1c(O)ccc(O)c1C2=O |
| 0.13 µM | 0.16 µM | NCCNCCNc1ccc(NCCNCCN)c2c1C(=O)c1c(O)ccc(O)c1C2=O |
| > 100 µM | > 100 µM | Nc1ccc(O)c2c1C(=O)c1c(N)ccc(O)c1C2=O |

| Compound | IC50 (Nucleic Acid [1]) | EC50 (Nucleic Acid [2]) |
| --- | --- | --- |
| O=C1c2c(O)ccc(O)c2C(=O)c2c(NCCNCCO)ccc(NCCNCCO)c21 [MITOXANTRONE] | 0.46 µM | 0.89 µM |
